In patent publication US10961242B2, “Compounds as autotaxin inhibitors and pharmaceutical compositions comprising the same” (LegoChem Biosciences, Inc., priority 2018, dated 2021):
Like-named read-outs stand apart in the source and are kept apart here.

Columns and labels:
human ENPP2 = human ENPP2 (Homo sapiens (Human), UniProt Q13822); test: Inhibitory activity on human ENPP2 (FS-3 assay); type: biochemical
Method: Two-fold dilution of each test compound solution (10 μM, 100% dimethyl sulfoxide) is carried out on 96-well V bottom plate (Costar 3363). After ten-fold dilution of each the test compound solution (100% dimethyl sulfoxide) with deionized distilled water, 10 μL of the diluted each mpound solution (10% dimethyl sulfoxide) was aliquoted to a black flat bottom 96-well plate (Costar 3915).

[1] = system: LPA production in blood serum caused by autotoxin; test: Inhibitory activity on LPA production in human blood serum; type: biochemical; details: human blood serum (h), 18:1 LPC, 3 hours at 37° C.
Method: (§1) After 100-fold dilution of each test compound solution (5 μL) (10 mM, 100%, dimethyl sulfoxide) with 495 μL of methanol, 3 μL of the diluted methanol solution (1% dimethyl sulfoxide) was mixed with 57 μL of human or mouse blood serum solution in a 1.5 mL tube. […] Subsequently, a solution prepared by diluting 10 mg/mL 18:1 LPC solution (50% ethanol) with blood serum to have concentration of 375 μg/mL was aliquoted in an amount of 2 μL to each tube so as to have 50 μL. Each tube was kept for 3 hours in a water bath at 37° C. to allow a reaction. To the tube obtained after the reaction, 100 μL of 0.5 μM 17:0 LPA solution (chloroform/methanol/water=65/35/8) was aliquoted and mixed therein. Centrifuge was carried out for 10 minutes using a centrifuge at conditions of 14,000 rpm and 4° C. 100 μL of 50% methanol solution is aliquoted first to a 96-well polypropylene plate (Agilent Technology 5042-1385), and the supernatant (50 μL) in a tube after the centrifuge was carefully transferred to the plate followed by mixing. After covering it with Well cap (Thermo 276011), analysis was carried out by LC-MS/MS (Agilent 1260).
(§2) In the following Table 3, the mouse blood serum was described as (m) and human blood serum was described as (h).

[2] = system: LPA production in blood serum caused by autotoxin; test: Inhibitory activity on LPA production in mouse blood serum; type: biochemical; details: mouse blood serum (m), 18:1 LPC, 3 hours at 37° C.
Method: as §1, §2

human ATX = human ATX (Homo sapiens (Human), UniProt Q13822); test: Bis-pNPP assay; type: biochemical; details: bis-pNPP substrate, read-out: Enzymatic assay (IC50) bis-pNPP
Method: Eight-fold dilution of each test compound solution (10 μM, 100% dimethyl sulfoxide) is carried out on 96-well V bottom plate (Costar 3363). After […] of each test compound solution (100% dimethyl sulfoxide) with deionized distilled water, 10 μL of the diluted each test compound solution (10% dimethyl sulfoxide) was aliquoted to a black flat bottom 96-well plate (Costar 3915). 50 μL of 60 mM Tris-HCl (pH9.0) buffer was added thereto, and subsequently 20 μL of 3.75 nM human ATX solution (buffer solution: 50 mM Tris-HCl (pH8.5), 5 mM CaCl2, 2.5 mM MgCl2, 0.01% Brij35) and 20 μL of 25 mM Bis-pNPP (bis(p-Nitrophenyl)-phosphate sodium salt) solution (buffer solution: 50 mM Tris-HCl (pH9.0)) were added thereto, respectively, followed by mixing. […] Furthermore, IC50 values that are shown in Table 3 were calculated using Grafit5 Software based on the inhibitory activity percentage ratio.

[3] = Microsomal stability, rat liver microsomes; type: in vitro ADME; details: male, SD, pH 7.4; rat liver microsomes (r), 0.5 mg/mL, NADPH regenerating system; read-out: MS (microsomal stability) t1/2
Method: (§3) A 2.5 mM stock solution of test compound in DMSO is diluted to 25 uM with 100 mM potassium phosphate buffer (pH 7.4) containing 5 mM EDTA. This solution was mixed with reaction mixtures (final concentration 1 μM). The incubation mixtures (final volume 700 μL) of test compound with liver microsomes [Xenotech; rat (male SD), human (mixed gender)] consisted of liver microsomes (0.5 mg/mL), substrate (Compound 4, […]), NADPH regenerating system (1.3 mM NADP+, 3.3 mM Glucose-6-phosphate, 3.3 mM MgCl2, 0.4 U/ml Glucose-6-phosphate dehydrogenase) in 81.3 mM potassium phosphate buffer (pH 7.4) containing 1 mM EDTA in duplicates. The reaction was initiated by addition of the NADPH regenerating system after preincubation at 37° C. for 10 min with test compounds. 100 uL of aliquot of the sample was removed at 0, 5, 10, 20, 30 and 60 min. The reaction was stopped by addition of 200 uL of acetonitrile containing internal standard (0.3 uM of Dextromethorphan). Each sample was mixed and centrifuged at 14000 rpm for 10 min. The resulting supernatant was analyzed by the LC-MS/MS method for determination of loss of parent compound. % parent remaining was calculated at 6 point time testing was done for T½ determination.

[4] = system: LPA production in mouse plasma; test: Ex-vivo assay (LPC assay) in mouse plasma; type: biochemical; details: LPA 18:1
Method: After 100-fold dilution of each test compound solution (5 μL) (10 mM, 100%, dimethyl sulfoxide) with 495 μL of methanol, 3 μL of the diluted methanol solution (1% dimethyl sulfoxide) was mixed with 57 μL of human or mouse blood serum solution in a 1.5 mL tube. The mixed test compound solution was serially diluted, 12 μL for each, with 48 μL of 100% blood serum to have 5 different concentrations, and each tube was kept for 15 minutes in a water bath with constant temperature of 37° C. Subsequently, a solution prepared by diluting 10 mg/mL 18:1 LPC solution (50% ethanol) with blood serum to have concentration of 375 μg/mL was aliquoted in an amount of 2 μL to each tube so as to have 50 μL. Each tube was kept for 3 hours in a water bath at 37° C. to allow a reaction. To the tube obtained after the reaction, 100 μL of 0.5 μM 17:0 LPA solution (chloroform/methanol/water=65/35/8) was aliquoted and mixed therein. Centrifuge was carried out for 10 minutes using a centrifuge at conditions of 14,000 rpm and 4° C. 100 μL of 50% methanol solution is aliquoted first to a 96-well polypropylene plate (Agilent Technology 5042-1385), and the supernatant (50 μL) in a tube after the centrifuge was carefully transferred to the plate followed by mixing. After covering it with Well cap (Thermo 276011), analysis was carried out by LC-MS/MS (Agilent 1260).
The test was carried out in the same process as Test example 2 to obtain the IC50 values in the following table 4.

[5] = Microsomal stability, human liver microsomes; type: in vitro ADME; details: both sexes, pH 7.4; human liver microsomes (h), 0.5 mg/mL, NADPH regenerating system; read-out: MS (microsomal stability) t1/2
Method: as §3

[6] = FS-3 assay, same process as Test example 1, read-out: Enzymatic assay (IC50) FS-3

Which IC50 (human ENPP2; human ENPP2, FS-3 substrate, 30 min at 37° C., read-out: IC50) does the source give for `O=C(Cc1nnc(-c2cnc(NC3CC=C(c4cccc(Cl)c4)CC3)nc2)o1)N1CCc2[nH]nnc2C1` (stereo not drawn) [Compound 35, 2-[5-(2-{[4-(3-chlorophenyl)cyclohex-3-en-1-yl]amino}pyrimidin-5-yl)-1,3,4-oxadiazol-2-yl]-1-{1H,4H,5H,6H,7H-[1,2,3]triazolo[4,5-c]pyridin-5-yl}ethan-1-one] here?
Its IC50 is 2.4 nM.

And the IC50 [1]?
The IC50 was 99 nM.

And the IC50 [2]?
The IC50 was 46 nM.

Which IC50 (human ENPP2; [6]) does the source give for `O=C(CO)N1CCN(C(=O)Cn2cc(-c3cnc(NC4Cc5ccccc5C4)nc3)c(-c3ccncc3)n2)CC1` [Compound 115, 1-{4-[2-(4-{2-[(2,3-dihydro-1H-inden-2-yl)amino]pyrimidin-5-yl}-3-(pyridin-4-yl)-1H-pyrazol-1-yl)acetyl]piperazin-1-yl}-2-hydroxyethan-1-one] here?
The IC50 was 3.04 nM.

What about the IC50 (human ATX) of the same compound?
The IC50 was 66.8 nM.

What about the half-life at 1 µM [3] of the same compound?
Its half-life at 1 µM is over 60 min.

And the IC50 [4]?
The IC50 was 125 nM.

What about the half-life at 1 µM [5] of the same compound?
Its half-life at 1 µM is over 60 min.

Which IC50 (human ENPP2; [6]) does the source give for `O=C(Cn1cc(-c2cnc(NC3Cc4ccccc4C3)nc2)c(-c2ccncc2)n1)N1CCc2[nH]nnc2C1` [Compound 96, 2-(4-{2-[(2,3-dihydro-1H-inden-2-yl)amino]pyrimidin-5-yl}-3-(pyridin-4-yl)-1H-pyrazol-1-yl)-1-{1H,4H,5H,6H,7H-[1,2,3]triazolo[4,5-c]pyridin-5-yl}ethan-1-one] here?
The IC50 was 2.02 nM.

And the IC50 (human ATX)?
Its IC50 is under 1.56 nM.

And the half-life at 1 µM [3]?
The half-life at 1 µM was 30 ± 1.57 min.

And the IC50 [4]?
The IC50 was 3.65 nM.

What about the half-life at 1 µM [5] of the same compound?
Its half-life at 1 µM is 22.2 min.

For `O=C(Cn1cc(-c2cnc(NC3Cc4ccccc4C3)nc2)c(C2CCNCC2)n1)N1CCc2[nH]nnc2C1` [Compound 98, 2-(4-{2-[(2,3-dihydro-1H-inden-2-yl)amino]pyrimidin-5-yl}-3-(piperidin-4-yl)-1H-pyrazol-1-yl)-1-{1H,4H,5H,6H,7H-[1,2,3]triazolo[4,5-c]pyridin-5-yl}ethan-1-one], which IC50 (human ENPP2; [6]) is on record?
The IC50 was 9.39 nM.

And the IC50 (human ATX)?
Its IC50 is under 1.56 nM.

And the half-life at 1 µM [3]?
The half-life at 1 µM was over 60 min.

And the half-life at 1 µM [5]?
The half-life at 1 µM was over 60 min.

What does the source list for `CCN(CC)c1nn(CC(=O)N2CCc3[nH]nnc3C2)cc1-c1cnc(NC2Cc3ccccc3C2)nc1` [Compound 106, 2-[3-(diethylamino)-4-{2-[(2,3-dihydro-1H-inden-2-yl)amino]pyrimidin-5-yl}-1H-pyrazol-1-yl]-1-{1H,4H,5H,6H,7H-[1,2,3]triazolo[4,5-c]pyridin-5-yl}ethan-1-one]?
IC50 (human ENPP2; [6]): 2.57 nM; IC50 (human ATX): 2.27 nM; half-life at 1 µM [3]: 3.9 ± 0.03 min; half-life at 1 µM [5]: 4.2 min

With `O=C(Cn1cc(-c2cnc(NC3Cc4ccccc4C3)nc2)c(-c2ccccn2)n1)N1CCc2[nH]nnc2C1` [Compound 116, 2-(4-{2-[(2,3-dihydro-1H-inden-2-yl)amino]pyrimidin-5-yl}-3-(pyridin-2-yl)-1H-pyrazol-1-yl)-1-{1H,4H,5H,6H,7H-[1,2,3]triazolo[4,5-c]pyridin-5-yl}ethan-1-one] as the compound, how does the IC50 (human ENPP2; [6]) read?
The IC50 was under 1.56 nM.

What about the IC50 (human ATX) of the same compound?
Its IC50 is under 1.56 nM.

And the half-life at 1 µM [3]?
The half-life at 1 µM was 25.2 ± 0.69 min.

And the IC50 [4]?
Its IC50 is 7.1 nM.

What about the half-life at 1 µM [5] of the same compound?
The half-life at 1 µM was 33 min.

Which results are given for `O=C(Cn1cc(-c2cnc(NC3Cc4ccccc4C3)nc2)c(NC2CCC2)n1)N1CCc2[nH]nnc2C1` [Compound 100, 2-[3-(cyclobutylamino)-4-{2-[(2,3-dihydro-1H-inden-2-yl)amino]pyrimidin-5-yl}-1H-pyrazol-1-yl]-1-{1H,4H,5H,6H,7H-[1,2,3]triazolo[4,5-c]pyridin-5-yl}ethan-1-one]?
IC50 (human ENPP2; [6]): 1.74 nM; IC50 (human ATX): 3.6 nM; half-life at 1 µM [3]: 10.3 ± 0.72 min; half-life at 1 µM [5]: 16.4 min
